{
  "source": "patent US20210267984A1",
  "about": "“APPLICATION OF ALLOPURINOL IN PREPARATION OF DRUG FOR TREATING CANCER WITH HIGH EXPRESSION OF PAICS GENE” (priority 2018, published 2021)",
  "key": {"[1]": {"system": "Bladder Urothelial Carcinoma", "test": "Anti-cancer effect of allopurinol (cell biology screening combined with animal experiments)", "conditions": "BLCA; PAICS abnormally high expression", "text": "(§1) This property of allopurinol is different from those of most chemotherapeutic drugs."}, "[2]": {"system": "Breast invasive carcinoma", "test": "Anti-cancer effect of allopurinol (cell biology screening combined with animal experiments)", "conditions": "BRCA; PAICS abnormally high expression", "text": "as §1"}, "[3]": {"system": "Cervical squamous cell carcinoma and endocervical adenocarcinoma", "test": "Anti-cancer effect of allopurinol (cell biology screening combined with animal experiments)", "conditions": "CESC; PAICS abnormally high expression", "text": "as §1"}, "[4]": {"system": "Cholangiocarcinoma", "test": "Anti-cancer effect of allopurinol (cell biology screening combined with animal experiments)", "conditions": "CHOL; PAICS abnormally high expression", "text": "as §1"}, "[5]": {"system": "Colon adenocarcinoma", "test": "Anti-cancer effect of allopurinol (cell biology screening combined with animal experiments)", "conditions": "COAD; PAICS abnormally high expression", "text": "as §1"}, "[6]": {"system": "Esophageal carcinoma", "test": "Anti-cancer effect of allopurinol (cell biology screening combined with animal experiments)", "conditions": "ESCA; PAICS abnormally high expression", "text": "as §1"}, "[7]": {"system": "Glioblastoma multiforme", "test": "Anti-cancer effect of allopurinol (cell biology screening combined with animal experiments)", "conditions": "GBM; PAICS abnormally high expression", "text": "as §1"}, "[8]": {"system": "Head and Neck squamous cell carcinoma", "test": "Anti-cancer effect of allopurinol (cell biology screening combined with animal experiments)", "conditions": "HNSC; PAICS abnormally high expression", "text": "as §1"}, "[9]": {"system": "Liver hepatocellular carcinoma", "test": "Anti-cancer effect of allopurinol (cell biology screening combined with animal experiments)", "conditions": "LIHC; PAICS abnormally high expression", "text": "as §1"}, "[10]": {"system": "Lung adenocarcinoma", "test": "Anti-cancer effect of allopurinol (cell biology screening combined with animal experiments)", "conditions": "LUAD; PAICS abnormally high expression", "text": "as §1"}, "[11]": {"system": "Lung squamous cell carcinoma", "test": "Anti-cancer effect of allopurinol (cell biology screening combined with animal experiments)", "conditions": "LUSC; PAICS abnormally high expression", "text": "as §1"}, "[12]": {"system": "Pancreatic adenocarcinoma", "test": "Anti-cancer effect of allopurinol (cell biology screening combined with animal experiments)", "conditions": "PAAD; PAICS abnormally high expression", "text": "as §1"}, "[13]": {"system": "Prostate adenocarcinoma", "test": "Anti-cancer effect of allopurinol (cell biology screening combined with animal experiments)", "conditions": "PRAD; PAICS abnormally high expression", "text": "as §1"}, "[14]": {"system": "Rectum adenocarcinoma", "test": "Anti-cancer effect of allopurinol (cell biology screening combined with animal experiments)", "conditions": "READ; PAICS abnormally high expression", "text": "as §1"}, "[15]": {"system": "Stomach adenocarcinoma", "test": "Anti-cancer effect of allopurinol (cell biology screening combined with animal experiments)", "conditions": "STAD; PAICS abnormally high expression", "text": "as §1"}, "[16]": {"system": "Uterine Corpus Endometrial Carcinoma", "test": "Anti-cancer effect of allopurinol (cell biology screening combined with animal experiments)", "conditions": "UCEC; PAICS abnormally high expression", "text": "as §1"}, "[17]": {"system": "cancer with abnormally high expression of the PAICS gene", "test": "Anti-cancer and therapeutic effect, cancers with abnormally high PAICS expression", "text": "as §1"}, "[18]": {"system": "cancers with non-abnormally high expression of the PAICS gene", "test": "Therapeutic effect, cancers with non-abnormally high PAICS expression", "conditions": "cancers with non-abnormally high PAICS expression such as renal cancer, skin cutaneous melanoma, pheochromocytoma and paraganglioma", "text": "as §1"}, "[19]": {"system": "Bel-7402", "conditions": "data of CN102746306A; cited from earlier work"}, "[20]": {"system": "SMMC-7221", "conditions": "data of CN102746306A; cited from earlier work"}},
  "data": [
    {"compound": "Oc1ncnc2[nH]ncc12", "note": "[allopurinol, Allopurinol]", "values": [
      {"measurement": "Anti-cancer effect of allopurinol", "setting": "[1]", "value": "Significant"},
      {"measurement": "Anti-cancer effect of allopurinol", "setting": "[2]", "value": "Significant"},
      {"measurement": "Anti-cancer effect of allopurinol", "setting": "[3]", "value": "Significant"},
      {"measurement": "Anti-cancer effect of allopurinol", "setting": "[4]", "value": "Significant"},
      {"measurement": "Anti-cancer effect of allopurinol", "setting": "[5]", "value": "Significant"},
      {"measurement": "Anti-cancer effect of allopurinol", "setting": "[6]", "value": "Significant"},
      {"measurement": "Anti-cancer effect of allopurinol", "setting": "[7]", "value": "Significant"},
      {"measurement": "Anti-cancer effect of allopurinol", "setting": "[8]", "value": "Significant"},
      {"measurement": "Anti-cancer effect of allopurinol", "setting": "[9]", "value": "Significant"},
      {"measurement": "Anti-cancer effect of allopurinol", "setting": "[10]", "value": "Significant"},
      {"measurement": "Anti-cancer effect of allopurinol", "setting": "[11]", "value": "Significant"},
      {"measurement": "Anti-cancer effect of allopurinol", "setting": "[12]", "value": "Significant"},
      {"measurement": "Anti-cancer effect of allopurinol", "setting": "[13]", "value": "Significant"},
      {"measurement": "Anti-cancer effect of allopurinol", "setting": "[14]", "value": "Significant"},
      {"measurement": "Anti-cancer effect of allopurinol", "setting": "[15]", "value": "Significant"},
      {"measurement": "Anti-cancer effect of allopurinol", "setting": "[16]", "value": "Significant"},
      {"measurement": "anti-cancer and therapeutic effects", "setting": "[17]", "value": "significant anti-cancer and therapeutic effects"},
      {"measurement": "therapeutic effect", "setting": "[18]", "value": "no significant therapeutic effect"},
      {"measurement": "anti-tumor activity", "setting": "[19]", "value": "no anti-tumor activity"},
      {"measurement": "anti-tumor activity", "setting": "[20]", "value": "no anti-tumor activity"}
    ]}
  ]
}
